Assay results taken from patent US8959984B2, “Proteome-wide quantification of small molecule binding to cellular target proteins” (priority 2007, dated 2015).
pKd, pKi: −log10 of the molar value. Like-named read-outs stand apart in the source and are kept apart here.

Key:
GSK3B = GSK3B (Homo sapiens, UniProt P49841); assay: binding to immobilized V16742 (IVA1/IVA2, HeLa lysate, MS)
GSK3A = GSK3A (Homo sapiens, UniProt P49840); assay: as above
DYRK1A (IPI00219250) = target: T1, DYRK1A (IPI00219250) (Homo sapiens, UniProt Q13627); assay: binding to VI16742 beads (HeLa lysate, SILAC MS)
T1 construct: endogenous in cells; host or cells: HeLa S3 cell lysate

CaMK2d (CAMK2D) = CaMK2d (CAMK2D) (Homo sapiens, UniProt Q13557)
ACAD10 = target: T2, ACAD10 (Homo sapiens, UniProt Q6JQN1)
T2 sequence (Q6JQN1 1-1059): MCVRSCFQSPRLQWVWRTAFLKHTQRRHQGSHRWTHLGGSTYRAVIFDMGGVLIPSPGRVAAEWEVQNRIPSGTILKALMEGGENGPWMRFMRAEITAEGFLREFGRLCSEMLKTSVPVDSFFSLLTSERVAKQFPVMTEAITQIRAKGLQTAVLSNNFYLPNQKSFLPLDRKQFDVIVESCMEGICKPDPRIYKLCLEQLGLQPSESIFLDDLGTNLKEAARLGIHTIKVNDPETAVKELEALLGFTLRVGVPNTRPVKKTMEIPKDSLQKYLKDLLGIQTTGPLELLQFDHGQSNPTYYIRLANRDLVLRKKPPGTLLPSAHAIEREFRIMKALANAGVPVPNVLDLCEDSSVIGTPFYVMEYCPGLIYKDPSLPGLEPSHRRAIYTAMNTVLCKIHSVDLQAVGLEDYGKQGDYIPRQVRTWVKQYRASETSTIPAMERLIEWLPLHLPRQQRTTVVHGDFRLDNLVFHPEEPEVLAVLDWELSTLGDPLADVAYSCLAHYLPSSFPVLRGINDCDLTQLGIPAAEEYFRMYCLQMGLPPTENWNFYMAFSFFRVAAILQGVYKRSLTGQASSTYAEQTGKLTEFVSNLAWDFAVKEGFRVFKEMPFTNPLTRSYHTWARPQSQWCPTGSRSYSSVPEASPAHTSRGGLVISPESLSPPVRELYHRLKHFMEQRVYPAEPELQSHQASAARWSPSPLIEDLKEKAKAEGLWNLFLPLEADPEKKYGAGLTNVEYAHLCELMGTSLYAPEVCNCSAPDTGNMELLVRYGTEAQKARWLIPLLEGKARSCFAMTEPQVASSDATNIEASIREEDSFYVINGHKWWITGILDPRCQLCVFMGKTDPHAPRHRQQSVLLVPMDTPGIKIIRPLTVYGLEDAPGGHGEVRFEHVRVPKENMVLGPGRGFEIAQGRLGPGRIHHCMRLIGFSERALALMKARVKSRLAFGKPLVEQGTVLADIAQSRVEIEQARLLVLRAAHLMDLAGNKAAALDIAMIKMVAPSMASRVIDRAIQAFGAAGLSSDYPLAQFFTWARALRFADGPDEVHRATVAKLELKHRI

ALK2 (ACVR1) = target: T3, ALK2 (ACVR1) (Homo sapiens, UniProt Q04771)
T3 sequence (Q04771 21-509): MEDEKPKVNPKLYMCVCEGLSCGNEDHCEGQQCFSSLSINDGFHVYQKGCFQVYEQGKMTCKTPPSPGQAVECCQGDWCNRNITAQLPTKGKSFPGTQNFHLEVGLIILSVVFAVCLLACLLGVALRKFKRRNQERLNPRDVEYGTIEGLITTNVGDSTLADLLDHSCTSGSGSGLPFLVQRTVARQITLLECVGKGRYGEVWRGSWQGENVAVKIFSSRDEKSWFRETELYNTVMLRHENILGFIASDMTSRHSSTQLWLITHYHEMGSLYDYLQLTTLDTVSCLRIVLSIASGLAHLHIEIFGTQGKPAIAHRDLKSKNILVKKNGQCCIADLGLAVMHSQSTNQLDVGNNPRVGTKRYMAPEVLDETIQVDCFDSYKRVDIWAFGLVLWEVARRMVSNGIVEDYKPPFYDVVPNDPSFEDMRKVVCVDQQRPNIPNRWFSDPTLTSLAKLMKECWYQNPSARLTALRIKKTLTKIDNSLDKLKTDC

Sequence of GSK3B (P49841 whole entry): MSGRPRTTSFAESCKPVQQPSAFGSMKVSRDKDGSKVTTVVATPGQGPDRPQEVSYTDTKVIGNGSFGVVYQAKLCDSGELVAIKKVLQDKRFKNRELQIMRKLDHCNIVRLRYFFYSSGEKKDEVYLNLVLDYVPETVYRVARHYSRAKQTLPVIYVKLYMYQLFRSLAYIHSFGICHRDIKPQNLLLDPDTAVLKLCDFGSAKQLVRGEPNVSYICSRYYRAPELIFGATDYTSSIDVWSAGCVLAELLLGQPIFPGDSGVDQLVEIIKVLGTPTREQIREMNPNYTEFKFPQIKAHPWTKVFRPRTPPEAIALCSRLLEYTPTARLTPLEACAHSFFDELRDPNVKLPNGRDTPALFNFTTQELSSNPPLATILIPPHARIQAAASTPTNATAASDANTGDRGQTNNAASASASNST
Sequence of CaMK2d (CAMK2D) (Q13557 whole entry): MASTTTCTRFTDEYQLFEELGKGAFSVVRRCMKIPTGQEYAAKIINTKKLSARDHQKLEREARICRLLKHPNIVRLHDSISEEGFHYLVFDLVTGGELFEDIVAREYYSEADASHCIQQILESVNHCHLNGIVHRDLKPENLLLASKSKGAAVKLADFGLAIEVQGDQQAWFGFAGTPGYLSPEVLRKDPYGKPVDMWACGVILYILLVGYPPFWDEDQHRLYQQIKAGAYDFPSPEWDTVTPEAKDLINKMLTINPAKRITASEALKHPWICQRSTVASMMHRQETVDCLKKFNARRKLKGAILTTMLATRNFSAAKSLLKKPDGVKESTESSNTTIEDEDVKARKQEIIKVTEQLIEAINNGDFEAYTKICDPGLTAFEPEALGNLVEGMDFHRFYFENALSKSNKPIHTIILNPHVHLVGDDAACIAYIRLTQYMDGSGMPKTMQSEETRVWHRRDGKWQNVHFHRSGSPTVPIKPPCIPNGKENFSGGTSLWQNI
Sequence of GSK3A (P49840 whole entry): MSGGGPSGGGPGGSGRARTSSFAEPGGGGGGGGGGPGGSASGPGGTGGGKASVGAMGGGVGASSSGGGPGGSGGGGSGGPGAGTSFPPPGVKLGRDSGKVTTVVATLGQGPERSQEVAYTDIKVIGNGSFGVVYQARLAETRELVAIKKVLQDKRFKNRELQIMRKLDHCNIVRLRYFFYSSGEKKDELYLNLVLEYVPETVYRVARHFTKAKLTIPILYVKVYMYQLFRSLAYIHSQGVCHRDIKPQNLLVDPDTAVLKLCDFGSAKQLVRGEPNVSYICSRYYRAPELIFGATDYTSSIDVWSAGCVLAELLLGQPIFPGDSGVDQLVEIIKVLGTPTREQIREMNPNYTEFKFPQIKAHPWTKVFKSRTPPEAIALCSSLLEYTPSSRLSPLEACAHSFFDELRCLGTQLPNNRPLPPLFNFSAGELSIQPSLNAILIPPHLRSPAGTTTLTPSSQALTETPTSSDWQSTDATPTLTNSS

## CC(C)n1c(=O)ccc2cnc(Nc3ccc(OCCN)cc3)nc21 [compound 16742]
GSK3B; EXPERIMENT 1
  Percent bound at 1.87 μM 16742 conc: 12.33%
  Percent bound at 8.74 μM 16742 conc: 51.81%
  Percent bound at 52 μM 16742 conc: 91.30%
GSK3B; EXPERIMENT 1, read-out: Kd
  pKd: 5.07
GSK3B; EXPERIMENT 2
  Percent bound at 1.87 μM 16742 conc: 8.04%
  Percent bound at 8.74 μM 16742 conc: 41.97%
  Percent bound at 52 μM 16742 conc: 88.20%
GSK3B; EXPERIMENT 2, read-out: Kd
  pKd: 4.94
GSK3B; read-out: Kd Avg
  pKd: 5.00
GSK3A; EXPERIMENT 1
  Percent bound at 1.87 μM 16742 conc: 7.34%
  Percent bound at 8.74 μM 16742 conc: 35.37%
  Percent bound at 52 μM 16742 conc: 84.48%
GSK3A; EXPERIMENT 1, read-out: Kd
  pKd: 4.84
GSK3A; EXPERIMENT 2
  Percent bound at 1.87 μM 16742 conc: 4.30%
  Percent bound at 8.74 μM 16742 conc: 29.09%
  Percent bound at 52 μM 16742 conc: 78.29%
GSK3A; EXPERIMENT 2, read-out: Kd
  pKd: 4.73
GSK3A; read-out: Kd Avg
  pKd: 4.78

## CC(C)n1c(=O)ccc2cnc(Nc3ccc(OCCN)cc3)nc21 [V16742]
DYRK1A (IPI00219250); control beads vs first incubation
  rAVERAGE (CTRL/1 INC): 0.08
DYRK1A (IPI00219250); immobilized VI16742
  pKi: 4.08
DYRK1A (IPI00219250); second vs first incubation
  rAVERAGE (2 INC/1 INC): 0.62

## COc1cc2ncnc(Nc3ccc(F)c(Cl)c3)c2cc1OCCCN1CCOCC1 [gefitinib]
CaMK2d (CAMK2D)
  rAVERAGE (10 nM/0 nM Gef.): 0.89
  rAVERAGE (100 nM/0 nM Gef.): 1.11
  rAVERAGE (1000 nM/0 nM Gef.): 0.91
  rAVERAGE (10000 nM/0 nM Gef.): 0.93
ACAD10
  rAVERAGE (10 nM/0 nM Gef.): 1.17
  rAVERAGE (100 nM/0 nM Gef.): 0.86
  rAVERAGE (1000 nM/0 nM Gef.): 1.07
  rAVERAGE (10000 nM/0 nM Gef.): 0.24
ALK2 (ACVR1)
  rAVERAGE (10 nM/0 nM Gef.): 0.76
  rAVERAGE (100 nM/0 nM Gef.): 1.25
  rAVERAGE (1000 nM/0 nM Gef.): 0.77
  rAVERAGE (10000 nM/0 nM Gef.): 0.85
